In PMC5982776, “The novel anti-androgen candidate galeterone targets deubiquitinating enzymes, USP12 and USP46, to control prostate cancer growth and survival” (Oncotarget, 2018):

How the values were obtained:
[1] = target: USP46 (Homo sapiens, UniProt P62068); assay: Biacore SPR dose-dependent binding; IC50 from Ub-AMC enzyme inhibition with USP46/UAF1; type: biochemical
[2] = target: USP12 (Homo sapiens, UniProt O75317); assay: Biacore SPR dose-dependent binding; IC50 from Ub-AMC enzyme inhibition with USP12/UAF1; type: biochemical
USP12, sequence (O75317 whole entry): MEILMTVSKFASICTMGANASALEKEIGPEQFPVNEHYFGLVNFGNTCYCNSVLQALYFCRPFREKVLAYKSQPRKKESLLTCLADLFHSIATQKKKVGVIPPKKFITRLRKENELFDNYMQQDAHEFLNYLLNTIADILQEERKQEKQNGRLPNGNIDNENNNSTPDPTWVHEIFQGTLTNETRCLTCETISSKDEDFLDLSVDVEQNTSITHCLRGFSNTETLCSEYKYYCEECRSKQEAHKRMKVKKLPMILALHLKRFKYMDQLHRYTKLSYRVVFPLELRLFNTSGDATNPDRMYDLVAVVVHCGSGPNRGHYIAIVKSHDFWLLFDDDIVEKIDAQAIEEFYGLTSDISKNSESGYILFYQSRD
USP12, sequence (Q8TAF3 whole entry partner): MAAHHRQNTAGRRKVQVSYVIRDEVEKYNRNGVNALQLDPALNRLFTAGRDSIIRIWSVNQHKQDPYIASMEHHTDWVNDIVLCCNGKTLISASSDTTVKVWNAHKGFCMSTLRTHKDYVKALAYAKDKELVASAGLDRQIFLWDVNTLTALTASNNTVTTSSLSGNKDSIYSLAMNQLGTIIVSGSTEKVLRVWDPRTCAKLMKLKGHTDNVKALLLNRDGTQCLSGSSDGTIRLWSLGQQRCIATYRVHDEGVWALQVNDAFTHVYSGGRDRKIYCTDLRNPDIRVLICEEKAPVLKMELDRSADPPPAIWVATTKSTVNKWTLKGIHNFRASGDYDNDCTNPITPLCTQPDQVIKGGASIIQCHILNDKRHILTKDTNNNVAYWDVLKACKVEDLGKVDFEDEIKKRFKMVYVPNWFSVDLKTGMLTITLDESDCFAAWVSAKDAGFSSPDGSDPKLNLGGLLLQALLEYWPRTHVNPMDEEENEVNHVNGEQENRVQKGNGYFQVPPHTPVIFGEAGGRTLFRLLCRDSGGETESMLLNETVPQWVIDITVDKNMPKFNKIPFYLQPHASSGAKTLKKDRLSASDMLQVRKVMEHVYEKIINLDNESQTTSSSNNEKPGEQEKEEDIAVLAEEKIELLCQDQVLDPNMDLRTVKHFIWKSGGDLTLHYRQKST

USP46, sequence (P62068 whole entry): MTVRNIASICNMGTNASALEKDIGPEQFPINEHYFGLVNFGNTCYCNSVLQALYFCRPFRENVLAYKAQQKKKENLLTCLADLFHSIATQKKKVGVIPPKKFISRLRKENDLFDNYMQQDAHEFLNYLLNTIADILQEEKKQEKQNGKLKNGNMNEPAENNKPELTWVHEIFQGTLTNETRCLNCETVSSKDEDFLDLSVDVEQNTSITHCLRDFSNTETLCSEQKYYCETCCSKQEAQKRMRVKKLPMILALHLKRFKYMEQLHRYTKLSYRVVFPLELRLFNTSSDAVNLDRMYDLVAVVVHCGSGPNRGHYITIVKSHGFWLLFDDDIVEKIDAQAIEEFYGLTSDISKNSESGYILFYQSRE
USP46, sequence (Q8TAF3 whole entry partner): as the sequence (Q8TAF3 whole entry partner) above

C[C@]12CC[C@H](O)CC1=CC[C@@H]1[C@@H]2CC[C@]2(C)C(n3cnc4ccccc43)=CC[C@@H]12 [galeterone]
IC50 [1]: 3.4 to 4.2 µM
IC50 [2]: 2.1 to 3.4 µM
